Laboratory results as given in patent publication US8598128B2, “Fructosylated puerarin, and preparation method and use thereof” (priority 2010, dated 2013).
Values after ≈ are worked out from the molar mass of the structure shown.

Assays:
[1] = Solubility determination at 25° C.
[2] = cited from earlier work; for water solubility compared with puerarin: literature
[3] = test system: human chronmyelogenors leukemia cell strain K562; assay: K562 cell toxicity test (MTT); assay type: cell-based; settings: 48 h; for OD value: MTT 490 nm
Procedure: K-562 cells were cultured in an incubator at 37° C. with 5% CO2 saturated humidity in the RPMI-1640 complete culture medium containing inactivated calf serum with volume fraction of 10%, 100 U penicillin and streptomycin. […] For each drug concentration, 6 complex cases were provided. Put back the culture plate into the cell incubator, after 48 h, add 20 μL MTT (5 mg/mL) solution and continue to incubate it in the incubator for 4 h, then each case was added with triple liquid 100 μL, put it overnight to allow the crystal to fully dissolve. Vibrate it with oscillator for 20 min and determine the light absorption at 490 nm with a fully automatic ELISA instrument, and calculate the average suppression rate, suppression rate (%)=(control group A490−test group A490)/control group A490), the experiment was repeated three times. Relevant analysis and Student t tests in Microsoft Excel 2003 were used, and data are presented in X±SD.

[4] = test system: human breast cancer cell strain MDA-MB-231; assay: MDA-MB-231 cell toxicity test (MTT); assay type: cell-based; settings: 48 h; for OD value: MTT 490 nm
Procedure: MDA-MB-231 cells were cultured in an incubator at 37° C. with 5% CO2 saturated humidity in the RPMI-1640 complete culture medium containing inactivated fetal calf serum with volume fraction of 10%, 100 U penicillin and streptomycin. Take MDA-MB-231 cells in logarithmic phase (primary culture bottle) and discard the culture solution. […] Prepare the suspended solution of cells and adjust the cell concentration with appropriate amount of complete culture medium to 3×10^4/mL. Fed the cells into a tissue culture plate 96, with cell suspended liquid of 180 μL in each case, and put the culture plate into a cell incubator (37° C., 5% CO2) for conventional culture. When cells grew to 50%-70%, add drug liquid of different concentration. […] For DMSO solvent control group, add 20 μL of PBS containing […] and for the blank group, add 20 μL of PBS. For each drug concentration, 6 complex cases were provided. Put back the culture plate into the cell incubator, after 48 h, add 20 μL MTT (5 mg/mL) solution and continue to incubate it in the incubator for 4 h, then remove the supernatant and dry it with tissue, add 200 μL DMSO into each case and vibrate it in the rocker without light for 15 min, to allow the crystal to fully dissolve. Determine the light absorption at 490 nm with a fully automatic ELISA instrument, and calculate the average suppression rate, suppression rate (%)=(control group A490−test group A490)/control group A490), the experiment was repeated three times. Relevant analysis and Student t tests in Microsoft Excel 2003 were used, and data are presented in X±SD.

in vivo = settings: in vivo, 50 mg/kg
Procedure: Embodiment 5: Metabokinetic Experiment of monofructosyl-β(2,6)-Puerarin in Blood
In HPLC analysis, DIONEX was used, with chromatographic column as Discovery HS C18 ([…], 5 μm), feeding specimen volume 20 μL, column temperature 30° C., the detector was UVD170U, with detection wavelength of 254 nm, flowing phase: A, water, B, chromatographic class methanol, A:B=80:20, at flow rate of 1 mL/min.
Sprague-Dawley mice (SD mice), with weight of 180-220 g, male and female in half, provided by Medical Experiment Center of Nantong University, with production permit No.: SCXK (Su) 20080010.
SD mice were randomly divided into 2 groups of 5 each, fasting for 12 hours before experiment. Puerarin and monofructosyl-β(2,6)-puerarin were respectively dissolved in 20% 1,2-PG normal saline, and injected into mouse caudal vein at a dosage of 50 mg/kg. After injection, at t=0 min, 4 min, 7 min, 17 min, 40 min, 60 min, 120 min and 180 min, 0.5 mL of blood was taken from orbit and put into centrifugal tubes treated with liquaemin, then it was immediately separated by centrifuging at 3000 rpm for 15 min, to separate out plasma for analysis.
Plasma of 100 μL was precisely taken and put into test tube, and 400 μL of methanol sedimented protein was added, they were mixed on vortex mixer for 5 min, then centrifuged at 10000 rpm for 10 min, and the supernatant was used for HPLC analysis.
The plasma concentration of the puerarin and monofructosyl-β(2,6)-puerarin specimens prepared as per 3.2 was obtained by calculation with external reference method. The data obtained were analyzed using pharmacokinetics statistic software.

physchem = settings: 25° C.
myocardio ischemia mice [5] = assay: T wave amplitude variation in pituitrin acute myocardial ischemia model; assay type: in vivo, Sprague-Dawley mice (SD mice); settings: 50 mg/kg
Description: (§1) Embodiment 6: […] Pituitrin injection was purchased from Nanjing Xinbai Pharmaceutical Co., Ltd., normal saline injection from Nanjing Xiaoying Pharmaceutical Co., Ltd., and DMSO, PG, and anhydrous ethanol were of chromatographic class. […] The data were presented with, and tested with t. P<0.05 indicates substantial difference, P<0.01 indicates very substantial difference; and P<0.001 indicates extremely substantial difference.

myocardio ischemia mice [6] = assay: Heart rate in pituitrin acute myocardial ischemia model; assay type: in vivo, Sprague-Dawley mice (SD mice); settings: 50 mg/kg
Description: as §1

[7] = literature; cited from earlier work
[8] = test system: aorta vascular smooth muscle; settings: compared with puerarin, literature; cited from earlier work
[9] = both, Sprague-Dawley, mouse, iv

O=c1c(-c2ccc(O)cc2)coc2c([C@@H]3O[C@H](CO[C@]4(CO)O[C@H](CO[C@]5(CO)O[C@H](CO)[C@@H](O)[C@@H]5O)[C@@H](O)[C@@H]4O)[C@@H](O)[C@H](O)[C@H]3O)c(O)ccc12 [bifructosyl-β(2,6)-puerarin]
solubility [1]: 280800 µg/mL (≈ 379 mM)
solubility relative to puerarin ([1]; puerarin 5.2 g/L): 54 times

O=c1c(-c2ccc(O)cc2)coc2c([C@@H]3O[C@H](CO[C@H]4O[C@H](CO)[C@@H](O[C@H]5O[C@H](CO)[C@@H](O)[C@H](O)[C@H]5O)[C@H](O)[C@H]4O)[C@@H](O)[C@H](O)[C@H]3O)c(O)ccc12 [maltosyl-α-(1,6)-puerarin]
water solubility compared with puerarin [2]: 168 times

O=c1c(-c2ccc(O)cc2)coc2c([C@@H]3O[C@H](CO[C@H]4O[C@H](CO)[C@@H](O)[C@H](O)[C@H]4O)[C@@H](O)[C@H](O)[C@H]3O)c(O)ccc12 [glucosyl-α-(1, 6)-puerarin]
water solubility compared with puerarin [2]: 14 times

O=c1c(-c2ccc(O)cc2)coc2c(C3OC(CO)C(O)C(O)C3O)c(OC3OC(COC4OC(CO)C(O)C(O)C4O)C(O)C(O)C3O)ccc12 (stereo not drawn) [7-O-isomaltoside puerarin]
water solubility compared with puerarin [2]: 100 times

O=c1c(-c2ccc(O)cc2)coc2c([C@@H]3O[C@H](CO)[C@@H](O)[C@H](O)[C@H]3O)c(O)ccc12 [Puerarin, 7,4′-dyhydroxy-8-β-D-glucosyl isoflavone]
solubility in water ([2]; background statement): 6240 µg/mL (≈ 15 mM)
Average suppression rate ([3]; 1 μmol/L): 10.65%
OD value ([3]; 1 μmol/L): 0.917 ± 0.031
Average suppression rate ([3]; 5 μmol/L): 7.52%
OD value ([3]; 5 μmol/L): 0.949 ± 0.023
Average suppression rate ([3]; 10 μmol/L): 9.46%
OD value ([3]; 10 μmol/L): 0.929 ± 0.030
Average suppression rate ([3]; 20 μmol/L): 10.68%
OD value ([3]; 20 μmol/L): 0.916 ± 0.056
Average suppression rate ([3]; 50 μmol/L): 22.73%
OD value ([3]; 50 μmol/L): 0.793 ± 0.083
Average suppression rate ([3]; 100 μmol/L): 30.89%
OD value ([3]; 100 μmol/L): 0.709 ± 0.038
Average suppression rate ([3]; 150 μmol/L): 36.65%
OD value ([3]; 150 μmol/L): 0.650 ± 0.039
Average suppression rate ([3]; 200 μmol/L): 54.19%
OD value ([3]; 200 μmol/L): 0.470 ± 0.027
Average suppression rate ([4]; 0.5 μmol/L): 10.68%
OD value ([4]; 0.5 μmol/L): 0.632 ± 0.056
Average suppression rate ([4]; 1 μmol/L): 11.67%
OD value ([4]; 1 μmol/L): 0.624 ± 0.053
Average suppression rate ([4]; 5 μmol/L): 12.43%
OD value ([4]; 5 μmol/L): 0.619 ± 0.090
Average suppression rate ([4]; 10 μmol/L): 13.77%
OD value ([4]; 10 μmol/L): 0.610 ± 0.039
Average suppression rate ([4]; 50 μmol/L): 24.92%
OD value ([4]; 50 μmol/L): 0.531 ± 0.066
Average suppression rate ([4]; 100 μmol/L): 33.06%
OD value ([4]; 100 μmol/L): 0.473 ± 0.034
Average suppression rate ([4]; 150 μmol/L): 47.47%
OD value ([4]; 150 μmol/L): 0.372 ± 0.037
Average suppression rate ([4]; 200 μmol/L): 61.91%
OD value ([4]; 200 μmol/L): 0.619 ± 0.042
MRT inf (in vivo; [9]): 20.6 min
MRT last (in vivo; [9]): 19.7 min
clearance (in vivo; [9]): 13 ± 3 mL/min/kg
half-life (in vivo; [9]): 17 ± 3.09 min
AUC (0-t) (in vivo): 4096.192 ± 973.839 mg/Lxmin
solubility (physchem): 5200 µg/mL (≈ 12.5 mM)
T wave amplitude variation (myocardio ischemia mice [5]; 15 s after Pit): 0.082 ± 0.052 mv
T wave amplitude variation (myocardio ischemia mice [5]; 30 s after Pit): 0.114 ± 0.096 mv
T wave amplitude variation (myocardio ischemia mice [5]; 1 min after Pit): 0.118 ± 0.086 mv
T wave amplitude variation (myocardio ischemia mice [5]; 2 min after Pit): 0.132 ± 0.096 mv
T wave amplitude variation (myocardio ischemia mice [5]; 5 min after Pit): 0.118 ± 0.075 mv
T wave amplitude variation (myocardio ischemia mice [5]; 10 min after Pit): 0.074 ± 0.061 mv
Heart rate (myocardio ischemia mice [6]; 5 s): 512 ± 36 time · min^−1
Heart rate (myocardio ischemia mice [6]; 10 s): 469 ± 32 time · min^−1
Heart rate (myocardio ischemia mice [6]; 15 s): 437 ± 63 time · min^−1
Heart rate (myocardio ischemia mice [6]; 30 s): 411 ± 69 time · min^−1
Heart rate (myocardio ischemia mice [6]; 1 min): 379 ± 85 time · min^−1
Heart rate (myocardio ischemia mice [6]; 2 min): 379 ± 72 time · min^−1
Heart rate (myocardio ischemia mice [6]; 5 min): 384 ± 53 time · min^−1
Heart rate (myocardio ischemia mice [6]; 10 min): 434 ± 51 time · min^−1
Heart rate (myocardio ischemia mice [6]; Normal): 484 ± 33 time · min^−1

O=c1c(-c2ccc(O)cc2)coc2c([C@@H]3O[C@H](CO)[C@@H](O)[C@H](O)[C@H]3O)c(O[C@@H]3O[C@H](CO)[C@@H](O)[C@H](O)[C@H]3O)ccc12 [7-O-glucoside puerarin]
water solubility compared with puerarin [2]: 18 times
mean retaining time (MRT) relative to puerarin [7]: 2.8 times
plasma half-life (t1/2) relative to puerarin [7]: 2 times

semi-emulsified glycosyl-α-(1,4)-puerarin
vasodilatation effect [8]: could produce better vasodilatation effect than puerarin
